Measured values as given in PubChem BioAssay AID2060601 (Molecular Pharmacology Branch, DTP, NCI, 2025).
“And” between values parts separate entries of the source, which are not always exact repeats. Equal values may be shown once.

Test system: 874868-142-R-J2-PDC complex spheroids, growth % test/control
Test: Anticancer human tumor 874868-142-R-J2-PDC patient-derived head and neck squamous carcinoma cell line growth inhibition [CLK]
Details: for viability, T/C: stronger effect = lower value
How it was run: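 Multi-cell-type spheroids combined patient-derived tumor cells with HUVEC endothelial cells and human mesenchymal stem cells. Paired agents were dosed in half-log steps down from about clinical Cmax, or from 10 microM where Cmax was unknown.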

[1] = curve of first compound, second compound 0.0316 µM
[2] = curve of first compound, second compound 0.1 µM
[3] = curve of first compound, second compound 0.316 µM
[4] = curve of first compound, second compound 1 µM
[5] = curve of first compound, second compound 3.16 µM
[6] = curve of first compound, second compound 10 µM
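Note: spheroids exposed to the compounds for 7 days.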
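Throughout, for viability, T/C: 100% = DMSO vehicle control viability.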

Q: What does the source list for `CC1(C)CCC(CN2CCN(c3ccc(C(=O)NS(=O)(=O)c4ccc(NCC5CCOCC5)c([N+](=O)[O-])c4)c(Oc4cnc5[nH]ccc5c4)c3)CC2)=C(c2ccc(Cl)cc2)C1` + CN1CCN(c2cc(C(=O)Nc3cc4cc(-c5cnn(C)c5)ccc4cn3)ccn2)CC1?
A: IC50 [1]: > 10 µM; IC50 [2]: > 10 µM; IC50 [3]: < 0.0316 µM; IC50 [4]: < 0.0316 µM; IC50 [5]: < 0.0316 µM; IC50 [6]: < 0.0316 µM; viability, T/C (second compound 0.0316 µM, first compound 0.0316 µM): 72.6%; viability, T/C (second compound 0.0316 µM, first compound 0.1 µM): 90.4%; viability, T/C (second compound 0.0316 µM, first compound 0.316 µM): 69.6%; viability, T/C (second compound 0.0316 µM, first compound 1 µM): 96.1%; viability, T/C (second compound 0.0316 µM, first compound 3.16 µM): 76.6%; viability, T/C (second compound 0.0316 µM, first compound 10 µM): 70%; viability, T/C (second compound 0.1 µM, first compound 0.0316 µM): 77.6%; viability, T/C (second compound 0.1 µM, first compound 0.1 µM): 69.9%; viability, T/C (second compound 0.1 µM, first compound 0.316 µM): 67.1%; viability, T/C (second compound 0.1 µM, first compound 1 µM): 75.9%; viability, T/C (second compound 0.1 µM, first compound 3.16 µM): 47.2%; viability, T/C (second compound 0.1 µM, first compound 10 µM): 58.9%; viability, T/C (second compound 0.316 µM, first compound 0.0316 µM): 20.8%; viability, T/C (second compound 0.316 µM, first compound 0.1 µM): 17.6%; viability, T/C (second compound 0.316 µM, first compound 0.316 µM): 17%; viability, T/C (second compound 0.316 µM, first compound 1 µM): 18.8%; viability, T/C (second compound 0.316 µM, first compound 3.16 µM): 12.8%; viability, T/C (second compound 0.316 µM, first compound 10 µM): 11.3%; viability, T/C (second compound 1 µM, first compound 0.0316 µM): 0.46%; viability, T/C (second compound 1 µM, first compound 0.1 µM): 4.39%; viability, T/C (second compound 1 µM, first compound 0.316 µM): 0.38%; viability, T/C (second compound 1 µM, first compound 1 µM): 0.29%; viability, T/C (second compound 1 µM, first compound 3.16 µM): 0.25%; viability, T/C (second compound 1 µM, first compound 10 µM): 0.25%; viability, T/C (second compound 3.16 µM, first compound 0.0316 µM): 0.23%; viability, T/C (second compound 3.16 µM, first compound 0.1 µM): 0.22%; viability, T/C (second compound 3.16 µM, first compound 0.316 µM): 0.22%; viability, T/C (second compound 3.16 µM, first compound 1 µM): 0.13%; viability, T/C (second compound 3.16 µM, first compound 3.16 µM): 0.22%; viability, T/C (second compound 3.16 µM, first compound 10 µM): 0.19%; viability, T/C (second compound 10 µM, first compound 0.0316 µM): 0.13%; viability, T/C (second compound 10 µM, first compound 0.1 µM): 3.51%; viability, T/C (second compound 10 µM, first compound 0.316 µM): 1.25%; viability, T/C (second compound 10 µM, first compound 1 µM): 0.25%; viability, T/C (second compound 10 µM, first compound 3.16 µM): 0.17%; viability, T/C (second compound 10 µM, first compound 10 µM): 1.58%

Q: For `C=CC(=O)Nc1cc(Nc2nccc(-c3cn(C)c4ccccc34)n2)c(OC)cc1N(C)CCN(C)C` + CNC(=O)c1ccc(Nc2nc(OC3CCCC3)c3c(-c4ccc5nc(C)oc5c4)c[nH]c3n2)c(OC)c1, which IC50 [1] is on record?
A: 0.0359 µM

Q: What about the IC50 [2] of the same compound?
A: 0.0222 µM

Q: And the IC50 [3]?
A: 0.00475 µM

Q: And the IC50 [4]?
A: < 0.000949 µM

Q: What about the IC50 [5] of the same compound?
A: < 0.000949 µM

Q: And the IC50 [6]?
A: < 0.000949 µM

Q: And the viability, T/C (second compound 0.0316 µM, first compound 0.000949 µM)?
A: 101%

Q: And the viability, T/C (second compound 0.0316 µM, first compound 0.003 µM)?
A: 115%

Q: And the viability, T/C (second compound 0.0316 µM, first compound 0.00949 µM)?
A: 77.4%

Q: What about the viability, T/C (second compound 0.0316 µM, first compound 0.03 µM) of the same compound?
A: 51.3%

Q: And the viability, T/C (second compound 0.0316 µM, first compound 0.0949 µM)?
A: 45.7%

Q: And the viability, T/C (second compound 0.0316 µM, first compound 0.3 µM)?
A: 23.9%

Q: What about the viability, T/C (second compound 0.1 µM, first compound 0.000949 µM) of the same compound?
A: 103%

Q: What about the viability, T/C (second compound 0.1 µM, first compound 0.003 µM) of the same compound?
A: 75%

Q: And the viability, T/C (second compound 0.1 µM, first compound 0.00949 µM)?
A: 57.5%

Q: And the viability, T/C (second compound 0.1 µM, first compound 0.03 µM)?
A: 52.4%

Q: And the viability, T/C (second compound 0.1 µM, first compound 0.0949 µM)?
A: 30.6%

Q: And the viability, T/C (second compound 0.1 µM, first compound 0.3 µM)?
A: 19.8%

Q: And the viability, T/C (second compound 0.316 µM, first compound 0.000949 µM)?
A: 64.4%

Q: What about the viability, T/C (second compound 0.316 µM, first compound 0.003 µM) of the same compound?
A: 48.9%

Q: And the viability, T/C (second compound 0.316 µM, first compound 0.00949 µM)?
A: 48%

Q: What about the viability, T/C (second compound 0.316 µM, first compound 0.03 µM) of the same compound?
A: 38.5%

Q: And the viability, T/C (second compound 0.316 µM, first compound 0.0949 µM)?
A: 24.8%

Q: What about the viability, T/C (second compound 0.316 µM, first compound 0.3 µM) of the same compound?
A: 24.3%

Q: What about the viability, T/C (second compound 1 µM, first compound 0.000949 µM) of the same compound?
A: 48.9%

Q: And the viability, T/C (second compound 1 µM, first compound 0.003 µM)?
A: 40.5%

Q: And the viability, T/C (second compound 1 µM, first compound 0.00949 µM)?
A: 38.6%

Q: And the viability, T/C (second compound 1 µM, first compound 0.03 µM)?
A: 32.5%

Q: And the viability, T/C (second compound 1 µM, first compound 0.0949 µM)?
A: 26.4%

Q: What about the viability, T/C (second compound 1 µM, first compound 0.3 µM) of the same compound?
A: 14.4%

Q: What about the viability, T/C (second compound 3.16 µM, first compound 0.000949 µM) of the same compound?
A: 43.4%

Q: And the viability, T/C (second compound 3.16 µM, first compound 0.003 µM)?
A: 39.6%

Q: What about the viability, T/C (second compound 3.16 µM, first compound 0.00949 µM) of the same compound?
A: 38%

Q: What about the viability, T/C (second compound 3.16 µM, first compound 0.03 µM) of the same compound?
A: 31.5%

Q: What about the viability, T/C (second compound 3.16 µM, first compound 0.0949 µM) of the same compound?
A: 25.5%

Q: And the viability, T/C (second compound 3.16 µM, first compound 0.3 µM)?
A: 20%

Q: What about the viability, T/C (second compound 10 µM, first compound 0.000949 µM) of the same compound?
A: 41.8%

Q: And the viability, T/C (second compound 10 µM, first compound 0.003 µM)?
A: 37.7%

Q: And the viability, T/C (second compound 10 µM, first compound 0.00949 µM)?
A: 32.7%

Q: And the viability, T/C (second compound 10 µM, first compound 0.03 µM)?
A: 32.3%

Q: And the viability, T/C (second compound 10 µM, first compound 0.0949 µM)?
A: 28%

Q: What about the viability, T/C (second compound 10 µM, first compound 0.3 µM) of the same compound?
A: 18.3%

Q: Which results are given for `CC1COCCN1c1cc(C2(S(C)(=N)=O)CC2)nc(-c2ccnc3[nH]ccc23)n1` (stereo unspecified)?
A: viability, T/C (compound 0.0316 µM): 93.5% and 84.9%; viability, T/C (compound 0.1 µM): 91.8% and 114%; viability, T/C (compound 0.316 µM): 82.2% and 76%; viability, T/C (compound 1 µM): 63.7% and 61.2%; viability, T/C (compound 3.16 µM): 32.2% and 49%; viability, T/C (compound 10 µM): 28.2% and 38.6%; IC50 (curve of compound): 1.64 µM and 2.16 µM
